Our source for the IC50 values is patent US9527859B2, “Amidopyridine derivative and use thereof” (Mitsubishi Tanabe Pharma Corporation, priority 2012, dated 2016).

The test system of the experiment is production of IL-17 in mouse splenocytes stimulated by recombinant mouse interleukin-23. Kind of experiment: Production of IL-17 induced when mouse splenocytes were stimulated by rm-IL-23 (ELISA). The conditions noted are these: Splenocyte, inhibition of IL-17 production, rm-IL-23 1 nmol/L, 72 hours. The experiment is classed as cell-based. The method, then: Effect on Production of IL-17 Induced when Mouse Splenocytes were Stimulated by Recombinant Mouse Interleukin-23 (rm-IL-23)
RPMI1640 media (Sigma-Aldrich) were used as a medium, to which 50 units/mL penicillin G potassium/50 μg/mL streptomycin (Gibco) and […] 2-mercaptoethanol (Sigma-Aldrich) were added, and then thereto was added 10% of fetal calf serum (FCS; Cell Culture Technology) which was treated at 56° C. for 30 minutes to be inactivated, and the mixture was used in the Test. The test compound was dissolved in dimethylsulfoxide and then diluted with 10% FCS-containing RPMI1640 medium to a desired concentration to be used. The spleens were aseptically taken out from 6 to 7 week-old male DBA/1J mice (Charles River Japan, Inc.) and a single cell suspension of splenocytes was prepared, which was hemolyzed by hypotonic treatment with a mixed solution of 0.83% aqueous solution of ammonium chloride and Tris-HCl buffer of pH 7.65 (9:1). A cell suspension prepared by using 10% FCS-containing RPMI1640 medium was added to a flat-bottomed 96 well microtestplate (Coaster) at 2×10^5 cells/well. Thereto were added test compounds and rm-IL-23 (R&D systems) were diluted with a medium to 1 to 1,000 nmol/L and 1 nmol/L of the final concentration, respectively, and the mixture was cultured at 37° C., 5% carbon dioxide and 95% air for 72 hours. After completion of the culture, culture supernatant was sampled and production amounts of IL-17 therein were determined by ELISA method. After sampling the supernatant, WST-8 (Seikagaku Corporation) was added at 10 μl/well and cultured at 37° C., 5% carbon dioxide and 95% air for 4 hours. Then, absorbance (O.D.: Optical Density) at 450 nm was measured by a microplate reader and the value was adopted as an index of cell survivability. An inhibition rate was calculated according to the following formula on the basis of an average of production amounts of IL-17 and O.D. values of the well containing a test compound of each concentration. Inhibition (%)=(1−(Average value of well with addition of test compound)/(Average value of well without addition of test compound))×100
Based on the dose-response curve obtained by plotting the inhibition rate in the longitudinal axis and the concentration in the horizontal axis, the concentration of the compound which inhibits the level to 50% of the value of the control group (IC50) (nmol/L) was determined by linear regression analysis.
In general terms: An ELISA detects its analyte on a solid surface through an enzyme-linked reagent.

For `Cc1cc(NC(=O)c2ccc(-c3ccc(Cl)cc3)s2)cnc1N1CCC(C(C)(C)O)CC1` [Example 78, 5-(4-chlorophenyl)-N-{6-[4-(1-hydroxy-1-methylethyl)piperidin-1-yl]-5-methylpyridin-3-yl}thiophene-2-carboxamide], the IC50 amounted to 0.0156 µM.

In the case of `CC(=O)OCCC1CCN(c2ncc(NC(=O)c3cnn(-c4ccc(F)cc4)c3C)cc2C#N)CC1` [Example 25, acetic acid [2-(1-{3-cyano-5-[1-(4-fluorophenyl)-5-methyl-1H-pyrazole-4-carboxamide]pyridin-2-yl}piperidin-4-yl)ethyl]ester], the IC50 is 0.161 µM.

Take `CC(=O)OC(C)C1CCN(c2ncc(NC(=O)c3cnn(-c4ccc(C(F)(F)F)cn4)c3C)cc2C)CC1` (stereo not shown) [Example 52, acetic acid {1-[1-(3-methyl-5-{5-methyl-1-[5-(trifluoromethyl)pyridin-2-yl]-1H-pyrazole-4-carboxamide}pyridin-2-yl)piperidin-4-yl]ethyl}ester]: the 50% inhibitory concentration (IC50) amounted to 0.0531 µM.

Regarding `Cc1c(C(=O)Nc2cnc(N3CCC(O)CC3)c(C#N)c2)cnn1-c1ccc(C(C)(C)C)cc1` [Example 23, 1-(4-tert-butylphenyl)-N-[5-cyano-6-(4-hydroxypiperidin-1-yl)pyridin-3-yl]-5-methyl-1H-pyrazole-4-carboxamide], the concentration for half-maximal inhibition (IC50) was 0.193 µM.

For `Cc1cc(NC(=O)c2ccn(-c3ccc(C#N)cn3)c2)cnc1N1CCC(C(C)(C)F)CC1` [Example 24, 1-(5-cyanopyridin-2-yl)-N-{6-[4-(1-fluoro-1-methylethyl)piperidin-1-yl]-5-methylpyridin-3-yl}-1H-pyrrole-3-carboxamide], the IC50 came to 0.18 µM.

Consider `Cc1ccc(-n2ncc(C(=O)Nc3cnc(N4CCC(C(C)(C)F)CC4)c(C)c3)c2C)cc1` [Example 32, N-{6-[4-(1-fluoro-1-methylethyl)piperidin-1-yl]-5-methylpyridin-3-yl}-5-methyl-1-(4-methylphenyl)-1H-pyrazole-4-carboxamide], for which the IC50 is 0.155 µM.

`Cc1cc(NC(=O)c2cnc(-c3ccc(C(F)(F)F)cc3)n2C)cnc1N1CCC(C(C)(C)O)CC1` [Example 76, N-{6-[4-(1-hydroxy-1-methylethyl)piperidin-1-yl]-5-methylpyridin-3-yl}-3-methyl-2-[4-(trifluoromethyl)phenyl]-3H-imidazole-4-carboxamide]: the IC50 came to 0.0304 µM.

With `COCCC1CCN(c2ncc(NC(=O)c3cnn(-c4ccc(C(F)(F)F)cn4)c3C)cc2C)CC1` [Example 31], the IC50 turned out to be 0.158 µM.

For the molecule `Cc1c(C(=O)Nc2cnc(N3CCC(O)CC3)c(C3CC3)c2)cnn1-c1ccc(Cl)cc1Cl` [Example 9, N-[5-cyclopropyl-6-(4-hydroxypiperidin-1-yl)pyridin-3-yl]-1-(2,4-dichlorophenyl)-5-methyl-1H-pyrazole-4-carboxamide], the IC50 was 0.331 µM.

Turning to `Cc1c(C(=O)Nc2cnc(N3CCC(CCO)CC3)c(C#N)c2)cnn1-c1ccc(F)cc1` [Example 30, N-{5-cyano-6-[4-(2-hydroxyethyl)piperidin-1-yl]pyridin-3-yl}-1-(4-fluorophenyl)-5-methyl-1H-pyrazole-4-carboxamide], the IC50 was determined as 0.175 µM.

With `Cc1cc(NC(=O)c2csc(-c3ccc(Cl)cc3)n2)cnc1N1CCC(C(C)(C)O)CC1` [Example 82, 2-(4-chlorophenyl)-N-{6-[4-(1-hydroxy-1-methylethyl)piperidin-1-yl]-5-methylpyridin-3-yl}thiazole-4-carboxamide], the IC50 is 0.0911 µM.

On to `Cc1cc(NC(=O)c2cnn(-c3ccc(F)cc3)c2C)cnc1N1CCC(C(C)O)CC1` (stereo not shown) [Example 28, 1-(4-fluorophenyl)-N-{6-[4-(1-hydroxyethyl)piperidin-1-yl]-5-methylpyridin-3-yl}-5-methyl-1H-pyrazole-4-carboxamide], for which the concentration for half-maximal inhibition (IC50) came out at 0.17 µM.

Take `Cc1cc(NC(=O)c2cnn(-c3ccc(F)cc3)c2C)cnc1N1CCC(C(C)(C)F)CC1` [Example 34, N-{6-[4-(1-fluoro-1-methylethyl)piperidin-1-yl]-5-methylpyridin-3-yl}-1-(4-fluorophenyl)-5-methyl-1H-pyrazole-4-carboxamide]: the IC50 amounted to 0.151 µM.

What is called IC50 is the concentration at which inhibition is half-maximal.
